Read-outs that look alike come from different tables or passages of the source.
What was measured:
Format in all cases: in vivo
[1] = system: barnyardgrass (Echinochloa crus-galli); assay: Test B pre-/postemergence plant response; settings: 1000 g ai/ha, 0 to 100 scale (0 no effect, 100 complete control); for pest or weed control at 1000 g/ha: Echinochloa crus-galli, 240 h, read-out: Plant response rating, Barnyardgrass
Procedure, shortened: (§1)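 Scoring used a 0–100 scale (100 = complete control) by visual comparison with untreated plants after approximately 10 days in the greenhouse. Compounds, in surfactant-containing non-phytotoxic solvent, were sprayed onto soil at planting or onto 2–10 cm seedlings.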

corn (Zea mays) = assay: Test B pre-/postemergence plant response; settings: 1000 g ai/ha, 0 to 100 scale (0 no effect, 100 complete control); for Corn plant response rating (crop injury, 0 = no effect, 100 = complete kill) at 1000 g/ha: Zea mays, 240 h
Procedure, shortened: as §1

[2] = system: giant foxtail (Setaria faberii); assay: Test B pre-/postemergence plant response; settings: 1000 g ai/ha, 0 to 100 scale (0 no effect, 100 complete control); for pest or weed control at 1000 g/ha: Setaria faberi, 240 h, read-out: Plant response rating, Foxtail, Giant
Procedure, shortened: as §1

[3] = system: large (Lg) crabgrass (Digitaria sanguinalis); assay: Test B pre-/postemergence plant response; settings: 1000 g ai/ha, 0 to 100 scale (0 no effect, 100 complete control); for pest or weed control at 1000 g/ha: Digitaria sanguinalis, 240 h, read-out: Plant response rating, Crabgrass, Large
Procedure, shortened: as §1

[4] = system: morningglory (Ipomoea spp.); assay: Test B pre-/postemergence plant response; settings: 1000 g ai/ha, 0 to 100 scale (0 no effect, 100 complete control); for pest or weed control at 1000 g/ha: Ipomoea, 240 h, read-out: Plant response rating, Morningglory
Procedure, shortened: as §1

[5] = system: pigweed (Amaranthus retroflexus); assay: Test B pre-/postemergence plant response; settings: 1000 g ai/ha, 0 to 100 scale (0 no effect, 100 complete control); for pest or weed control at 1000 g/ha: Amaranthus retroflexus, 240 h, read-out: Plant response rating, Pigweed
Procedure, shortened: as §1

[6] = system: velvetleaf (Abutilon theophrasti); assay: Test B pre-/postemergence plant response; settings: 1000 g ai/ha, 0 to 100 scale (0 no effect, 100 complete control); for pest or weed control at 1000 g/ha: Abutilon theophrasti, 240 h, read-out: Plant response rating, Velvetleaf
Procedure, shortened: as §1

[7] = system: wheat (Triticum aestivum); assay: Test B pre-/postemergence plant response; settings: 1000 g ai/ha, 0 to 100 scale (0 no effect, 100 complete control); for plant injury at 1000 g/ha: Triticum aestivum, 240 h, read-out: Plant response rating, Wheat
Procedure, shortened: as §1

[8] = system: barnyardgrass (Echinochloa crus-galli); assay: Test D flooded paddy test plant response; settings: Flood (flooded paddy test), visual rating on scale 0 to 100 (0 no effect, 100 complete control), 13 to 15 days
Description: (§2) Plant species in the flooded paddy test consisted of rice (Oryza sativa), small-flower umbrella sedge (Cyperus difformis), ducksalad (Heteranthera limosa), and bamyardgrass (Echinochloa crus-galli) grown to the 2-leaf stage for testing. At time of treatment, test pots were flooded to 3 cm above the soil surface, treated by application of test compounds directly to the paddy water, and then maintained at that water depth for the duration of the test. Treated plants and controls were maintained in a greenhouse for 13 to 15 days, after which time all species were compared to controls and visually evaluated. Plant response ratings, summarized in Table D, are based on a scale of 0 to 100 where 0 is no effect and 100 is complete control. A dash (-) response means no test result.

[9] = system: ducksalad (Heteranthera limosa); assay: Test D flooded paddy test plant response; settings: Flood (flooded paddy test), visual rating on scale 0 to 100 (0 no effect, 100 complete control), 13 to 15 days
Description: as §2

rice (Oryza sativa) = assay: Test D flooded paddy test plant response; settings: Flood (flooded paddy test), visual rating on scale 0 to 100 (0 no effect, 100 complete control), 13 to 15 days
Description: as §2

[10] = system: small-flower umbrella sedge (Cyperus difformis); assay: Test D flooded paddy test plant response; settings: Flood (flooded paddy test), visual rating on scale 0 to 100 (0 no effect, 100 complete control), 13 to 15 days
Description: as §2

[11] = system: barnyardgrass (Echinochloa crus-galli); assay: Test A pre-/postemergence plant response; settings: 0 to 100 scale, 0 is no effect, 100 is complete control
Description: (§3) Seeds of plant species selected from downy bromegrass (Bromus tectorum), cocklebur (common cocklebur, Xanthium strumarium), wild oat (Avena fatua), barnyardgrass (Echinochloa crus-galli), large (Lg) crabgrass (Digitaria sanguinalis), giant foxtail (Setaria faberii), morningglory (Ipomoea spp.), velvetleaf (Abutilon theophrasti), and sorghum (Sorghum vulgare) were planted into a sandy loam soil and treated preemergence by soil drench using test a chemical formulated in a non-phytotoxic solvent mixture which included a surfactant. At the same time these species were also treated postemergence sprayed to runoff using a test chemical formulated in the same manner. Plants ranged in height from 2 to 18 cm and were in the one- to two-leaf stage for the postemergence treatment. Treated plants and untreated controls were maintained in a greenhouse for approximately 11 days, after which time all treated plants were compared to untreated controls and visually evaluated for injury. Plant response ratings, summarized in Table A, are based on a 0 to 100 scale where 0 is no effect and 100 is complete control. A dash (-) response means no test result.

[12] = system: cocklebur (common cocklebur, Xanthium strumarium); assay: Test A pre-/postemergence plant response; settings: 0 to 100 scale, 0 is no effect, 100 is complete control
Description: as §3

[13] = system: downy bromegrass (Bromus tectorum); assay: Test A pre-/postemergence plant response; settings: 0 to 100 scale, 0 is no effect, 100 is complete control
Description: as §3

[14] = system: giant foxtail (Setaria faberii); assay: Test A pre-/postemergence plant response; settings: 0 to 100 scale, 0 is no effect, 100 is complete control
Description: as §3

[15] = system: large (Lg) crabgrass (Digitaria sanguinalis); assay: Test A pre-/postemergence plant response; settings: 0 to 100 scale, 0 is no effect, 100 is complete control
Description: as §3

[16] = system: morningglory (Ipomoea spp.); assay: Test A pre-/postemergence plant response; settings: 0 to 100 scale, 0 is no effect, 100 is complete control
Description: as §3

[17] = system: sorghum (Sorghum vulgare); assay: Test A pre-/postemergence plant response; settings: 0 to 100 scale, 0 is no effect, 100 is complete control
Description: as §3

[18] = system: velvetleaf (Abutilon theophrasti); assay: Test A pre-/postemergence plant response; settings: 0 to 100 scale, 0 is no effect, 100 is complete control
Description: as §3

wild oat (Avena fatua) = assay: Test A pre-/postemergence plant response; settings: 0 to 100 scale, 0 is no effect, 100 is complete control
Description: as §3

[19] = 1000 g ai/ha, Post Sprayed to Runoff

For `FC(F)(F)Oc1cccc(-c2ccccc2Oc2ncc(Cl)cn2)c1` [Compound 40], the “Plant response rating, Barnyardgrass” value ([1]; Postemergence) was 30, the “Plant response rating, Barnyardgrass” value ([1]; Preemergence) was 50 and the “Plant response rating, Corn” value (corn (Zea mays); Postemergence) was 20. For the same compound, the “Plant response rating, Corn” value (corn (Zea mays); Preemergence) was 0, the “Plant response rating, Foxtail, Giant” value ([2]; Postemergence) was 50 and the “Plant response rating, Foxtail, Giant” value ([2]; Preemergence) was 100. The “Plant response rating, Crabgrass, Large” value ([3]; Postemergence) was 50, the “Plant response rating, Crabgrass, Large” value ([3]; Preemergence) was 70 and the “Plant response rating, Morningglory” value ([4]; Postemergence) was 100. For the same compound, the “Plant response rating, Morningglory” value ([4]; Preemergence) was 0, the “Plant response rating, Pigweed” value ([5]; Postemergence) was 100 and the “Plant response rating, Pigweed” value ([5]; Preemergence) was 100. For the same compound, the “Plant response rating, Velvetleaf” value ([6]; Postemergence) was 100, the “Plant response rating, Velvetleaf” value ([6]; Preemergence) was 90 and the “Plant response rating, Wheat” value ([7]; Postemergence) was 10. For the same compound, the “Plant response rating, Wheat” value ([7]; Preemergence) was 0, the “Plant response rating, Barnyardgrass” value ([8]; 31 g ai/ha) was 0 and the “Plant response rating, Barnyardgrass” value ([8]; 62 g ai/ha) was 0. For the same compound, the “Plant response rating, Barnyardgrass” value ([8]; 125 g ai/ha) was 0, the “Plant response rating, Barnyardgrass” value ([8]; 250 g ai/ha) was 0 and the “Plant response rating, Ducksalad” value ([9]; 31 g ai/ha) was 0. For the same compound, the “Plant response rating, Ducksalad” value ([9]; 62 g ai/ha) was 0, the “Plant response rating, Ducksalad” value ([9]; 125 g ai/ha) was 20 and the “Plant response rating, Ducksalad” value ([9]; 250 g ai/ha) was 40. The “Plant response rating, Rice” value (rice (Oryza sativa); 31 g ai/ha) was 0, the “Plant response rating, Rice” value (rice (Oryza sativa); 62 g ai/ha) was 0 and the “Plant response rating, Rice” value (rice (Oryza sativa); 125 g ai/ha) was 0. For the same compound, the “Plant response rating, Rice” value (rice (Oryza sativa); 250 g ai/ha) was 0, the “Plant response rating, Sedge, Umbrella” value ([10]; 31 g ai/ha) was 0 and the “Plant response rating, Sedge, Umbrella” value ([10]; 62 g ai/ha) was 0. The “Plant response rating, Sedge, Umbrella” value ([10]; 125 g ai/ha) was 30 and the “Plant response rating, Sedge, Umbrella” value ([10]; 250 g ai/ha) was 50.
With `Cc1ccc(Oc2ncc(Cl)cn2)c(-c2cccc(C(F)(F)F)c2)c1` [Compound 39] the “Plant response rating, Barnyardgrass” value [11, 19] was 50, the “Plant response rating, Barnyardgrass” value ([11]; 2000 g ai/ha, Pre Soil Drench) was 90 and the “Plant response rating, Cocklebur” value [12, 19] was 40. The “Plant response rating, Cocklebur” value ([12]; 2000 g ai/ha, Pre Soil Drench) was 0, the “Plant response rating, Bromegrass, Downy” value [13, 19] was 20 and the “Plant response rating, Bromegrass, Downy” value ([13]; 2000 g ai/ha, Pre Soil Drench) was 70. For the same compound, the “Plant response rating, Foxtail, Giant” value [14, 19] was 30, the “Plant response rating, Foxtail, Giant” value ([14]; 2000 g ai/ha, Pre Soil Drench) was 100 and the “Plant response rating, Crabgrass, Large” value [15, 19] was 50. The “Plant response rating, Crabgrass, Large” value ([15]; 2000 g ai/ha, Pre Soil Drench) was 90, the “Plant response rating, Morningglory” value [16, 19] was 30 and the “Plant response rating, Morningglory” value ([16]; 2000 g ai/ha, Pre Soil Drench) was 0. The “Plant response rating, Sorghum” value [17, 19] was 30, the “Plant response rating, Sorghum” value ([17]; 2000 g ai/ha, Pre Soil Drench) was 50 and the “Plant response rating, Velvetleaf” value [18, 19] was 60. The “Plant response rating, Velvetleaf” value ([18]; 2000 g ai/ha, Pre Soil Drench) was 70, the “Plant response rating, Oat, Wild” value (wild oat (Avena fatua); [19]) was 20 and the “Plant response rating, Oat, Wild” value (wild oat (Avena fatua); 2000 g ai/ha, Pre Soil Drench) was 90.
`Clc1ccc(-c2ccccc2Oc2ncc(Cl)cn2)nc1` [Compound 1, 5-chloro-2-[2-(5-chloro-2-pyridinyl)phenoxy]pyrimidine] was tested, and the pest or weed control at 1000 g/ha ([1]; post-emergence, Postemergence) was 70%, the pest or weed control at 1000 g/ha ([1]; pre-emergence, Preemergence) was 80% and the Corn plant response rating (crop injury, 0 = no effect, 100 = complete kill) at 1000 g/ha (corn (Zea mays); post-emergence, Postemergence) was 10%. For the same compound, the Corn plant response rating (crop injury, 0 = no effect, 100 = complete kill) at 1000 g/ha (corn (Zea mays); pre-emergence, Preemergence) was 0%, the pest or weed control at 1000 g/ha ([2]; post-emergence, Postemergence) was 80% and the pest or weed control at 1000 g/ha ([2]; pre-emergence, Preemergence) was 100%. It also gave a pest or weed control at 1000 g/ha ([3]; post-emergence, Postemergence) of 70%, a pest or weed control at 1000 g/ha ([3]; pre-emergence, Preemergence) of 100% and a pest or weed control at 1000 g/ha ([4]; post-emergence, Postemergence) of 60%. For the same compound, the pest or weed control at 1000 g/ha ([4]; pre-emergence, Preemergence) was 20%, the pest or weed control at 1000 g/ha ([5]; post-emergence, Postemergence) was 100% and the pest or weed control at 1000 g/ha ([5]; pre-emergence, Preemergence) was 100%. It also gave a pest or weed control at 1000 g/ha ([6]; post-emergence, Postemergence) of 100%, a pest or weed control at 1000 g/ha ([6]; pre-emergence, Preemergence) of 80% and a plant injury at 1000 g/ha ([7]; post-emergence, Postemergence) of 0%. For the same compound, the plant injury at 1000 g/ha ([7]; pre-emergence, Preemergence) was 0%, the “Plant response rating, Barnyardgrass” value ([8]; 31 g ai/ha) was 0 and the “Plant response rating, Barnyardgrass” value ([8]; 62 g ai/ha) was 0. For the same compound, the “Plant response rating, Barnyardgrass” value ([8]; 125 g ai/ha) was 0, the “Plant response rating, Barnyardgrass” value ([8]; 250 g ai/ha) was 0 and the “Plant response rating, Ducksalad” value ([9]; 31 g ai/ha) was 0. The “Plant response rating, Ducksalad” value ([9]; 62 g ai/ha) was 0, the “Plant response rating, Ducksalad” value ([9]; 125 g ai/ha) was 0 and the “Plant response rating, Ducksalad” value ([9]; 250 g ai/ha) was 0. The “Plant response rating, Rice” value (rice (Oryza sativa); 31 g ai/ha) was 0, the “Plant response rating, Rice” value (rice (Oryza sativa); 62 g ai/ha) was 0 and the “Plant response rating, Rice” value (rice (Oryza sativa); 125 g ai/ha) was 0. The “Plant response rating, Rice” value (rice (Oryza sativa); 250 g ai/ha) was 0, the “Plant response rating, Sedge, Umbrella” value ([10]; 31 g ai/ha) was 0 and the “Plant response rating, Sedge, Umbrella” value ([10]; 62 g ai/ha) was 0. For the same compound, the “Plant response rating, Sedge, Umbrella” value ([10]; 125 g ai/ha) was 0 and the “Plant response rating, Sedge, Umbrella” value ([10]; 250 g ai/ha) was 0.

Source: patent US10131652B2, “Pyrimidinyloxy benzene derivatives as herbicides” (E. I. DU PONT DE NEMOURS AND COMPANY, priority 2014, dated 2018)
